Reference: PubChem BioAssay AID2060496 (Molecular Pharmacology Branch, DTP, NCI, 2025)

System: 276233-004-R-J1-PDC complex spheroid viability
Assay: Anticancer human tumor 276233-004-R-J1-PDC patient-derived colon adenocarcinoma cell line growth inhibition [GQUAD]
Settings: for IC50: curve of first compound; for viability, T/C: stronger effect = lower value
Method in brief: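 Viability of tumor cells grown as complex spheroids with endothelial and stromal cells, exposed to drug combinations. Top concentration at or near clinical Cmax (else 10 microM), diluted in half-log increments.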

[1] = second compound 0.0316 µM, first compound 0.0316 µM
[2] = second compound 0.0316 µM, first compound 0.1 µM
[3] = second compound 0.0316 µM, first compound 0.316 µM
[4] = second compound 0.0316 µM, first compound 1 µM
[5] = second compound 0.0316 µM, first compound 3.16 µM
[6] = second compound 0.0316 µM, first compound 10 µM
[7] = second compound 0.1 µM, first compound 0.0316 µM
[8] = second compound 0.1 µM, first compound 0.1 µM
[9] = second compound 0.1 µM, first compound 0.316 µM
[10] = second compound 0.1 µM, first compound 1 µM
[11] = second compound 0.1 µM, first compound 3.16 µM
[12] = second compound 0.1 µM, first compound 10 µM
[13] = second compound 0.316 µM, first compound 0.0316 µM
[14] = second compound 0.316 µM, first compound 0.1 µM
[15] = second compound 0.316 µM, first compound 0.316 µM
[16] = second compound 0.316 µM, first compound 1 µM
[17] = second compound 0.316 µM, first compound 3.16 µM
[18] = second compound 0.316 µM, first compound 10 µM
[19] = second compound 1 µM, first compound 0.0316 µM
[20] = second compound 1 µM, first compound 0.1 µM
[21] = second compound 1 µM, first compound 0.316 µM
[22] = second compound 1 µM, first compound 1 µM
[23] = second compound 1 µM, first compound 3.16 µM
[24] = second compound 1 µM, first compound 10 µM
[25] = second compound 3.16 µM, first compound 0.0316 µM
[26] = second compound 3.16 µM, first compound 0.1 µM
[27] = second compound 3.16 µM, first compound 0.316 µM
[28] = second compound 3.16 µM, first compound 1 µM
[29] = second compound 3.16 µM, first compound 3.16 µM
[30] = second compound 3.16 µM, first compound 10 µM
[31] = second compound 10 µM, first compound 0.0316 µM
[32] = second compound 10 µM, first compound 0.1 µM
[33] = second compound 10 µM, first compound 0.316 µM
[34] = second compound 10 µM, first compound 1 µM
[35] = second compound 10 µM, first compound 3.16 µM
[36] = second compound 10 µM, first compound 10 µM
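Note: spheroids exposed to drugs for seven days.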
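Throughout, for viability, T/C: 100% = DMSO vehicle control viability.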

SMILES: C=CCn1c(=O)c2cnc(Nc3ccc(N4CCN(C)CC4)cc3)nc2n1-c1cccc(C(C)(C)O)n1 + Cc1cnc(CNC(=O)c2c(=O)c3ccc(N4CCCN(C)CC4)nc3n3c2sc2ccccc23)cn1
- IC50 (second compound 0.0316 µM): > 10 µM
- IC50 (second compound 0.1 µM): > 10 µM
- IC50 (second compound 0.316 µM): > 10 µM
- IC50 (second compound 1 µM): > 10 µM
- IC50 (second compound 3.16 µM): > 10 µM
- IC50 (second compound 10 µM): 8.24 µM
- viability, T/C [1]: 93.4%
- viability, T/C [2]: 70.5%
- viability, T/C [3]: 64.3%
- viability, T/C [4]: 65.9%
- viability, T/C [5]: 69.1%
- viability, T/C [6]: 78%
- viability, T/C [7]: 75.9%
- viability, T/C [8]: 86%
- viability, T/C [9]: 80.2%
- viability, T/C [10]: 72.2%
- viability, T/C [11]: 73.1%
- viability, T/C [12]: 67.8%
- viability, T/C [13]: 89.8%
- viability, T/C [14]: 82.1%
- viability, T/C [15]: 76%
- viability, T/C [16]: 61.3%
- viability, T/C [17]: 66%
- viability, T/C [18]: 61.9%
- viability, T/C [19]: 76.1%
- viability, T/C [20]: 83%
- viability, T/C [21]: 76.5%
- viability, T/C [22]: 67.9%
- viability, T/C [23]: 62%
- viability, T/C [24]: 62.4%
- viability, T/C [25]: 76.5%
- viability, T/C [26]: 71.5%
- viability, T/C [27]: 59.6%
- viability, T/C [28]: 55.4%
- viability, T/C [29]: 52.5%
- viability, T/C [30]: 58%
- viability, T/C [31]: 57.8%
- viability, T/C [32]: 66.1%
- viability, T/C [33]: 65.6%
- viability, T/C [34]: 54.9%
- viability, T/C [35]: 58.6%
- viability, T/C [36]: 48.4%

SMILES: COc1cc(C2c3cc4c(cc3C(OC3OC5COC(C)OC5C(O)C3O)C3COC(=O)C23)OCO4)cc(OC)c1O (centres undefined) + Cc1cnc(CNC(=O)c2c(=O)c3ccc(N4CCCN(C)CC4)nc3n3c2sc2ccccc23)cn1
- IC50 (second compound 0.0316 µM): > 10 µM
- IC50 (second compound 0.1 µM): > 10 µM
- IC50 (second compound 0.316 µM): > 10 µM
- IC50 (second compound 1 µM): > 10 µM
- IC50 (second compound 3.16 µM): > 10 µM
- IC50 (second compound 10 µM): > 10 µM
- viability, T/C [1]: 83.2%
- viability, T/C [2]: 91.7%
- viability, T/C [3]: 87.8%
- viability, T/C [4]: 72.9%
- viability, T/C [5]: 98.6%
- viability, T/C [6]: 82.1%
- viability, T/C [7]: 97%
- viability, T/C [8]: 92.2%
- viability, T/C [9]: 76.2%
- viability, T/C [10]: 95.3%
- viability, T/C [11]: 75.5%
- viability, T/C [12]: 88%
- viability, T/C [13]: 85.4%
- viability, T/C [14]: 77.3%
- viability, T/C [15]: 86.9%
- viability, T/C [16]: 94.8%
- viability, T/C [17]: 73.1%
- viability, T/C [18]: 81%
- viability, T/C [19]: 84.8%
- viability, T/C [20]: 80.2%
- viability, T/C [21]: 85.8%
- viability, T/C [22]: 83.2%
- viability, T/C [23]: 96.4%
- viability, T/C [24]: 78.2%
- viability, T/C [25]: 78.7%
- viability, T/C [26]: 78.2%
- viability, T/C [27]: 76.7%
- viability, T/C [28]: 76.9%
- viability, T/C [29]: 87.7%
- viability, T/C [30]: 75.2%
- viability, T/C [31]: 65.1%
- viability, T/C [32]: 72.2%
- viability, T/C [33]: 70.9%
- viability, T/C [34]: 71.5%
- viability, T/C [35]: 78.7%
- viability, T/C [36]: 82.9%
